Test results from patent US8324384B2, “Glucagon receptor antagonist compounds, compositions containing such compounds and methods of use” (Merck Sharp & Dohme Corp., priority 2010, dated 2012).

Target: T1, cloned human glucagon receptor (Homo sapiens, UniProt P47871)
T1 construct: expressed in transfected cells; cell membranes used
Experiment: Glucagon Receptor Binding Assay (125I-Glucagon, SPA, CHO cell membranes)
Conditions: for IC50: inhibition of 125I-Glucagon binding to membranes of CHO cells expressing human glucagon receptor, more active isomer of indicated compounds; for potency as glucagon receptor antagonist relative to the other diastereomer: racemic diastereomers of Example 5 separated by reverse-phase HPLC, assay not given
Protocol: Glucagon Receptor Binding Assay
A stable CHO (Chinese hamster ovary) cell line expressing cloned human glucagon receptor was maintained as described (Chiechi, et. al. J Biol Chem 272, 7765-9(1997); Cascieri, et. al. J Biol Chem 274, 8694-7(1999)). To determine antagonistic binding affinity of compounds, 0.001-0.003 mg of cell membranes from these cells were pre-incubated with 0.100 mg WGA-coated PVT SPA beads (Amersham) for 20 minutes at room temperature in 25 μL of a buffer containing 50 mM Tris-HCl (pH 7.5), 5 mM MgCl2, 2 mM EDTA, 0.1% BSA and 3% glycerol in Costar 384 well plates with clear bottoms (#3706). Next, 25 μL of ^125I-Glucagon (New England Nuclear, MA) (1×10^−14 mol per well) and either 1 μL solutions of test compounds or 0.001 mM unlabeled glucagon or DMSO were added and mixed. After 4-12 hours incubation at room temperature, the radioactivity bound to the cell membranes was determined in a radioactive emission detection counter (Wallac-Microbeta). Data were analyzed using the Data Analyzer software program of Merck & Co., Inc. The IC50 values were calculated using non-linear regression analysis assuming single-site competition.

T1 sequence (P47871 26-477): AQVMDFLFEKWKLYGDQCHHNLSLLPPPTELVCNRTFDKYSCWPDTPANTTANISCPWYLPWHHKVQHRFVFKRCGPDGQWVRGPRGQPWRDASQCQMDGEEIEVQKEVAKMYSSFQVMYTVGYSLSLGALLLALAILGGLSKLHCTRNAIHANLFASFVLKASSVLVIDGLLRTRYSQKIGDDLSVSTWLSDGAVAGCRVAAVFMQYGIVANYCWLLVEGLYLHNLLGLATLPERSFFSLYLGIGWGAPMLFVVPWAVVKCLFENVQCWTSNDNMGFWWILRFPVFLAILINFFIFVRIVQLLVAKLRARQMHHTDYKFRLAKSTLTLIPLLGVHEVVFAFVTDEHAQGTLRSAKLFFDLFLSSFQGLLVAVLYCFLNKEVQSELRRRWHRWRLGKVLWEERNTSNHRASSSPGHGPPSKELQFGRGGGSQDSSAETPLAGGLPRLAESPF

SMILES	IC50 [nM]	potency as glucagon receptor antagonist relative to the other diastereomer
CCCC(c1ccc(C(=O)NCC(O)C(=O)O)cc1)C(C(=O)N1Cc2ccc(OC(F)(F)F)cc2C1)c1ccc(Cl)cc1 (mixture of isomers) [Example 99]	1.1	–
CCCC(c1ccc(C(=O)NC(C)CC(=O)O)cc1)C(C(=O)N1Cc2ccc(OC(F)(F)F)cc2C1)c1ccc(Cl)cc1 (mixture of isomers) [Example 101]	5.9	–
CCCC(c1ccc(C(=O)NCCC(=O)O)cc1)C(C(=O)N1CCc2ccccc21)c1ccc(Cl)cc1 (racemic) [Example 3, N-(4-{1-[1-(4-chlorophenyl)-2-(2,3-dihydro-1H-indol-1-yl)-2-oxoethyl]butyl}benzoyl)-β-alanine]	10	–
CCCC(c1ccc(C(=O)NCCC(=O)O)cc1)C(C(=O)N1Cc2cccc(C(F)(F)F)c2C1)c1ccc(Cl)cc1 (single isomer, unassigned) [Example 1, N-[4-(1-{1-(4-chlorophenyl)-2-oxo-2-[4-(trifluoromethyl)-1,3-dihydro-2H-isoindol-2-yl]ethyl}butyl)benzoyl]-β-alanine]	0.8	–
CCCC(c1ccc(C(=O)NCCC(=O)O)cc1)C(C(=O)N1CCCc2ccccc21)c1ccc(Cl)cc1 (single isomer, unassigned) [Example 2, N-(4-{1-[1-(4-chlorophenyl)-2-(3,4-dihydroquinolin-1(2H)-yl)-2-oxoethyl]butyl}benzoyl)-β-alanine]	48	–
CCCC(c1ccc(C(=O)NCCC(=O)O)cc1)C(C(=O)N1Cc2ccc(-c3cccnc3OC)cc2C1)c1ccc(Cl)cc1 (single isomer, unassigned) [Example 4, N-[4-(1-{1-(4-chlorophenyl)-2-[5-(2-methoxypyridin-3-yl)-1,3-dihydro-2H-isoindol2-yl]-2-oxoethyl}butyl)benzoyl]-β-alanine]	0.5	–
CCCC(c1ccc(C(=O)Nc2nnn[nH]2)cc1)C(C(=O)N1Cc2ccc(OC(F)(F)F)cc2C1)c1ccc(Cl)cc1 (single isomer, unassigned) [Example 5 Minor isomer]	–	less potent
CCCC(c1ccc(C(=O)NCCC(=O)O)cc1)C(C(=O)N1Cc2cccc(C)c2C1)c1ccc(Cl)cc1 (single isomer, unassigned) [Example 49]	0.1	–
CCCC(c1ccc(C(=O)NCCC(=O)O)cc1)C(C(=O)N1Cc2cc(Cl)cc(Cl)c2C1)c1ccc(Cl)cc1 (single isomer, unassigned) [Example 55]	0.6	–
CCCC(c1ccc(C(=O)NCCC(=O)O)cc1)C(C(=O)N1CCc2cc(-c3ccc(Cl)cc3)ccc2C1)c1ccc(Cl)cc1 (single isomer, unassigned) [Example 69]	1	–
CCCC(c1ccc(C(=O)NCCC(=O)O)cc1)C(C(=O)N1CCc2cc(-c3ccc(C)cc3)ccc2C1)c1ccc(Cl)cc1 (single isomer, unassigned) [Example 70]	1.6	–
CCCC(c1ccc(C(=O)NCCC(=O)O)cc1)C(C(=O)N1CCc2cc(OC)ccc2C1)c1ccc(Cl)cc1 (single isomer, unassigned) [Example 79]	1.5	–
CCCC(c1ccc(C(=O)NCCC(=O)O)cc1)C(C(=O)N1CCc2cc(C(F)(F)F)ccc2C1)c1ccc(Cl)cc1 (single isomer, unassigned) [Example 80]	0.9	–
CCCC(c1ccc(C(=O)NCCC(=O)O)cc1)C(C(=O)N1CCc2cc(C)ccc2C1)c1ccc(Cl)cc1 (single isomer, unassigned) [Example 82]	0.4	–
CCCC(c1ccc(C(=O)NCCC(=O)O)cc1)C(C(=O)N1CCc2ccc(-c3ccc(C)cc3)cc2C1)c1ccc(Cl)cc1 (single isomer, unassigned) [Example 88]	3.2	–
CCCC(c1ccc(C(=O)NCCC(=O)O)cc1)C(C(=O)N1CCc2ccc(F)cc2C1)c1ccc(Cl)cc1 (single isomer, unassigned) [Example 93]	9.8	–
CCCC(c1ccc(C(=O)Nc2nnn[nH]2)cc1)C(C(=O)N1Cc2ccc(OC(F)(F)F)cc2C1)c1ccc(Cl)cc1 (stereo not shown) [Example 5]	2.2	more potent
CCCC(c1ccc(C(=O)NCCC(=O)O)cc1)C(C(=O)N1Cc2ccc(C(F)(F)F)cc2C1)c1ccc(C(F)(F)F)cc1 (stereo not shown) [Example 6]	0.4	–
CCCC(c1ccc(C(=O)NCCC(=O)O)cc1)C(C(=O)N1Cc2ccc(-c3ccc(OC)nc3)cc2C1)c1ccc(C(F)(F)F)cc1 (stereo not shown) [Example 8]	0.4	–
CCCC(c1ccc(C(=O)NCCC(=O)O)cc1)C(C(=O)N1Cc2ccc(-c3ccc(OC)nc3)cc2C1)c1cc(F)cc(F)c1 (stereo not shown) [Example 9]	0.4	–
CCCC(c1ccc(C(=O)NCCC(=O)O)cc1)C(C(=O)N1Cc2ccc(-c3cc(OC)ccn3)cc2C1)c1ccc(Cl)cc1 (stereo not shown) [Example 13]	2	–
CCCC(c1ccc(C(=O)NCCC(=O)O)cc1)C(C(=O)N1Cc2ccc(-c3ccnc(C)c3)cc2C1)c1ccc(Cl)cc1 (stereo not shown) [Example 30]	0.6	–
CCCC(c1ccc(C(=O)NCCC(=O)O)cc1)C(C(=O)N1Cc2ccc(C#N)cc2C1)c1ccc(Cl)cc1 (stereo not shown) [Example 36]	5.5	–
CCCC(c1ccc(C(=O)NCCC(=O)O)cc1)C(C(=O)N1Cc2ccc(C)cc2C1)c1ccc(Cl)cc1 (stereo not shown) [Example 37]	0.6	–
CCCC(c1ccc(C(=O)NCCC(=O)O)cc1)C(C(=O)N1Cc2ccc(-c3ccc(OC)nc3)cc2C1)c1ccc(Cl)cc1 (stereo not shown) [Example 41]	0.6	–
CCCC(c1ccc(C(=O)NCCC(=O)O)cc1)C(C(=O)N1CCc2cc(-c3ccc(C)cc3)ccc21)c1ccc(Cl)cc1 (stereo not shown) [Example 63]	0.2	–
CCCC(c1ccc(C(=O)NCCS(=O)(=O)O)cc1)C(C(=O)N1Cc2ccc(C(F)(F)F)cc2C1)c1ccc(Cl)cc1 (stereo not shown) [Example 107]	1.1	–
